Reference: patent publication US5663207A, “Gem-dichlorocyclopropanes as antitumor agents” (priority 1995, dated 1997)
Like-named read-outs stand apart in the source and are kept apart here.

Legend:
[1] = test system: MCF-7 human breast cancer cells; conditions: 10^-6 M; Day et al., J. Med. Chem. 34, 842-851 (1991); cited from earlier work
estrogen receptor = biological target: T1, estrogen receptor (Rattus norvegicus, UniProt P06211); conditions: cited from earlier work; for RBA (relative binding affinity): relative to estradiol = 100%
T1 construct: ovariectomized rat uterine cytosolic estrogen receptor preparation; from tissue; host or cells: uterine cytosol of ovariectomized Sprague-Dawley rats (immature rats from Sasco are named as uterus source, mature ovariectomized rats)
T1 sequence (P06211 1-600): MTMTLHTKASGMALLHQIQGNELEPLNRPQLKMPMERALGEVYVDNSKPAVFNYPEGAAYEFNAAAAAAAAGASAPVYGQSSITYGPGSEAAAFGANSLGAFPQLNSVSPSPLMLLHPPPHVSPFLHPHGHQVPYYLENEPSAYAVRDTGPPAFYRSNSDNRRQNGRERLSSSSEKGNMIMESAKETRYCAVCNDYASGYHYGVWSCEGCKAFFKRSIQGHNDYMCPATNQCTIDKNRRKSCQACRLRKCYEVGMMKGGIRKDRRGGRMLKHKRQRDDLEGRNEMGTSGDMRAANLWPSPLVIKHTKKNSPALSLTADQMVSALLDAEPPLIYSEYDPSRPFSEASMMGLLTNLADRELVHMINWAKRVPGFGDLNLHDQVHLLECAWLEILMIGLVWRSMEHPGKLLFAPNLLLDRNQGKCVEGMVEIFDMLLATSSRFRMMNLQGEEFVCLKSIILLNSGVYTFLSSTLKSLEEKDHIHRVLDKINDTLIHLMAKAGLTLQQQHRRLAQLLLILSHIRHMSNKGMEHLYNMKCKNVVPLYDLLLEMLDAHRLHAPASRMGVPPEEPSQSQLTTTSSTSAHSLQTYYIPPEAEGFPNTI

[2] = test system: Immature Swiss-Webster female mice (estradiol-stimulated uterine weight); experiment: Antiuterotrophic assay for antiestrogenic activity in immature mice; assay type: in vivo, mouse (Swiss-Webster); conditions: 0.4, 0.8, and 1.6 mg; three-day assay; estradiol 0.03 μg
Excerpt: The biological evaluation of the test compounds consisted of the in vitro rat cytosolic estradiol receptor binding assay, the in vivo immature mouse uterotrophic (estrogenic) and antiuterotrophic (antiestrogenic) assays, and the in vitro suppression of the proliferation of the ER positive MCF-7 human breast cancer cell line.
Vital-free immature female Swiss-Webster mice were obtained at 17-19 days of age from Sasco weighing 8-10 g, and were used in the uterotrophic and antiuterotrophic assays. Immature female Sprague-Dawley rats, obtained at 17-19 days of age from Sasco, weighing 28-33 g, were used as sources of uteri for the estradiol receptor binding assay. Animals were housed in wire topped polycarbonate cages at six animals per cage, with the environment controlled at 25° C. and a 12 h light/dark cycle. […]
The antiestrogenic assay was conducted as described for the estrogenic assay, except that each mouse in the cyclopropyl treatment groups received a standard stimulating dose of estradiol (0.03 μg) in sesame oil (0.1 mL) and the test compounds or MER 25 were administered in isopropyl myristate (0.05 mL) in a dosage range of 0.4, 0.8 and 1.6 mg (total dose). […] Antiestrogenic activity was measured as a decrease in the estradiol-stimulated […] response in groups that received both the test compound and estradiol as compared to the group treated only with estradiol.

Compound | MCF-7 Inhibition [1] [%] | RBA (relative binding affinity) (estrogen receptor; Day et al., J. Med. Chem. 34, 842-851 (1991)) [%] | antiestrogenic activity: effect on estradiol-induced uterine weight gain (in words) [2] | RBA (relative binding affinity) (estrogen receptor; footnote e, Day et al. (1991)) | [3H]-estradiol displacement curve (in words) (estrogen receptor; standards, Day et al., 1991)
ClC1(Cl)[C@H](c2ccccc2)[C@@H]1c1ccccc1 [Analog II] | 20.4 | 0.01 | – | – | –
CCN(CC)CCOc1ccc(C(O)(Cc2ccc(OC)cc2)c2ccccc2)cc1 (centres unmarked) [MER-25] | – | – | significant reduction in estradiol-induced uterotrophic activity | --^e (Less than 0.01%.) | very weak dose-related displacement
